Test results published in US4196205A, “3-Acetoxymethyl-7-(iminoacetamido)-cephalosporanic acid derivatives” (priority 1976, dated 1980).
Read-outs that look alike come from different tables or passages of the source.

Assays:
Proteus Mirabilis A 235 = test: Experimental infection of Proteus Mirabilis in mice; format: in vivo
Protocol: Groups of 10 mice with an average weight of 22 g received intraperitoneally 0.5 ml of a 24 hour old culture in oxoid bouillon of Proteus Mirabilis A 235 diluted 1/4 with distilled water. The mice then received subcutaneously the compound of Examples 11 or 15 one hour and 5 and 24 hours after the infection and the results are reported in the following Table.

[1] = system: Streptococcus pyogenes A 561; test: MIC, dilution in liquid medium; format: cell-based; conditions: Streptococcus pyogenes
Protocol: (§1) The method used was a dilution of a liquid medium where a series of tubes received the same quantity of a sterile nutritive media and increasing doses of the test compounds were placed therein. Then each tube was seeded with a bacterial strain and was incubated for 24 to 48 hours at 37° C. in an oven. The increasing inhibition was determined by transillumination to determine the minimum inhibiting concentration (MIC in […]) and the results are reported in the following Tables.

[2] = system: Staphylococcus aureus ATCC 5 638 Pen-Sensible = UC 1061; test: MIC, dilution in liquid medium; format: cell-based
Protocol: as §1

[3] = system: Proteus vulgaris (indol+) A 232; test: MIC, dilution in liquid medium; format: cell-based; conditions: Proteus vulgaris, read-out: M.I.C.
Protocol: as §1

Providencia Du 48 = test: MIC, dilution in liquid medium; format: cell-based; conditions: for MIC: Providencia, read-out: M.I.C.
Protocol: as §1

[4] = system: Staphylococcus aureus UC 1 128 Pen-Resistant; test: MIC, dilution in liquid medium; format: cell-based; conditions: Staphylococcus aureus
Protocol: as §1

[5] = system: Escherichia Coli Resistant Tetracycline ATCC 11 303 = UC 1261; test: MIC, dilution in liquid medium; format: cell-based; conditions: Escherichia coli
Protocol: as §1

[6] = system: Escherichia Coli Exp. TO26 B6; test: MIC, dilution in liquid medium; format: cell-based; conditions: 48 H
Protocol: as §1

[7] = system: Escherichia Coli Resistant Gentamicine, Tobramycine R 55 123 D; test: MIC, dilution in liquid medium; format: cell-based; conditions: Escherichia coli
Protocol: as §1

[8] = system: Bacillus subtilis ATCC 6 633; test: MIC, dilution in liquid medium; format: cell-based; conditions: 24 H
Protocol: as §1

[9] = system: Klebsiella pneumoniae 2 536 Resistant Gentamicine; test: MIC, dilution in liquid medium; format: cell-based; conditions: Klebsiella pneumoniae, read-out: M.I.C.
Protocol: as §1

[10] = system: Streptococcus faecalis 5 432; test: MIC, dilution in liquid medium; format: cell-based; conditions: read-out: M.I.C.
Protocol: as §1

[11] = system: Serratia Resistant Gentamicine 2 532; test: MIC, dilution in liquid medium; format: cell-based; conditions: read-out: M.I.C.
Protocol: as §1

[12] = system: Pseudomonas 3 935 Exp. SG; test: MIC, dilution in liquid medium; format: cell-based; conditions: Pseudomonas, 3935EXP.SG, read-out: M.I.C.
Protocol: as §1

[13] = system: Salmonella typhimurium 420; test: MIC, dilution in liquid medium; format: cell-based; conditions: Salmonella enterica, TYPHIMURIUM, read-out: M.I.C.
Protocol: as §1

[14] = system: Escherichia Coli Sensible Tetracycline ATCC 9 637 = 1020; test: MIC, dilution in liquid medium; format: cell-based; conditions: Escherichia coli, read-out: M.I.C.
Protocol: as §1

[15] = system: Streptococcus faecalis 99 F 74; test: MIC, dilution in liquid medium; format: cell-based; conditions: Enterococcus faecalis, read-out: M.I.C.
Protocol: as §1

[16] = system: Proteus mirabilis (indol-) A 235; test: MIC, dilution in liquid medium; format: cell-based
Protocol: as §1

[17] = system: Klebsiella pneumoniae Exp. 52 145; test: MIC, dilution in liquid medium; format: cell-based; conditions: for MIC: Klebsiella pneumoniae
Protocol: as §1

[18] = system: Staphylococcus aureus exp. n° 54 146; test: MIC, dilution in liquid medium; format: cell-based; conditions: Staphylococcus aureus
Protocol: as §1

CCO/N=C(/C(=O)NC1C(=O)N2C(C(=O)O)=C(COC(C)=O)CSC12)c1csc(N)n1 (stereo not drawn) [Example 15, anti isomer of 3-acetoxymethyl-7-[2-(2-amino-4-thiazolyl)-2-ethoxyiminoacetamido]-ceph-3-eme-4-carboxylic acid]
10 µg/mL: MIC ([5]; 24 h, read-out: M.I.C.) | MIC ([5]; 48 h, read-out: M.I.C.) | MIC ([8]; Bacillus subtilis, ATCC6, 24 h, read-out: M.I.C.) | MIC ([16]; Proteus mirabilis, 24 h, read-out: M.I.C.)
100 µg/mL: MIC (Providencia Du 48; DU48, 24 h, 24 H) | MIC ([7]; 24 h, read-out: M.I.C.) | MIC ([7]; 48 h, read-out: M.I.C.) | MIC ([13]; 24 h) | MIC ([13]; 48 h)
40 µg/mL: MIC ([4]; UC1, 24 h, 24 H) | MIC ([4]; UC1, 48 h, 48 H) | M.I.C. [6] | MIC ([7]; 24 h) | MIC ([7]; 48 h) | M.I.C. ([17]; 24 H) | M.I.C. ([17]; 48 H) | MIC ([18]; 24 h) | MIC ([18]; 48 h)
5 µg/mL: M.I.C. ([16]; 24 H)
5: MORTALITY AFTER 21H30 (Proteus Mirabilis A 235; 1 mg subcutaneously)
2: MORTALITY AFTER 28H (Proteus Mirabilis A 235; 1 mg subcutaneously)
1: MORTALITY AFTER 6H55 (Proteus Mirabilis A 235; 0.5 mg subcutaneously) | MORTALITY AFTER 23H10 (Proteus Mirabilis A 235; 1 mg subcutaneously) | MORTALITY AFTER 23H30 (Proteus Mirabilis A 235; 1 mg subcutaneously) | MORTALITY AFTER 70H (Proteus Mirabilis A 235; 1 mg subcutaneously)
0.4 µg/mL: MIC ([1]; A561, 24 h, 24 H, read-out: M.I.C.) | MIC ([1]; A561, 48 h, 48 H, read-out: M.I.C.)
20 µg/mL: MIC ([2]; 24 h) | MIC ([2]; 48 h) | MIC ([5]; 24 h) | MIC ([5]; 48 h) | M.I.C. [8] | MIC ([17]; EXP.52145, 24 h, 24 H) | MIC ([17]; EXP.52145, 48 h, 48 H)
0/10: Mice Alive on the 8th day (Proteus Mirabilis A 235; 0.5 mg subcutaneously) | Mice Alive on the 8th day (Proteus Mirabilis A 235; 1 mg subcutaneously)
> 100 µg/mL: MIC ([3]; 24 h) | MIC ([3]; 48 h) | M.I.C. (Providencia Du 48; 24 H) | MIC (Providencia Du 48; DU48, 48 h, 48 H) | MIC ([9]; 24 h) | MIC ([9]; 48 h) | MIC ([10]; Enterococcus faecalis, 5432, 24 h) | MIC ([10]; Enterococcus faecalis, 5432, 48 h) | MIC ([11]; 24 h) | MIC ([11]; 48 h) | MIC ([12]; 24 h) | MIC ([12]; 48 h) | MIC ([14]; ATCC9, 24 h, 24 H) | MIC ([14]; ATCC9, 48 h, 48 H) | MIC ([15]; 99F74, 24 h) | MIC ([15]; 99F74, 48 h)
1 µg/mL: MIC ([1]; A561, 24 h) | MIC ([1]; A561, 48 h)
9: MORTALITY AFTER 21H30 (Proteus Mirabilis A 235; 0.5 mg subcutaneously)
